Source: patent US7601856B2 (Wyeth, priority 2006, dated 2009)
Read-outs that look alike come from different tables or passages of the source.

Assays:
[1] = tested on: isolated rat bladder strips; assay: Inhibition of contractions of isolated rat bladder strips; settings: for inhibition at 30 µM: maximum percentage inhibition of contractile activity, read-out: % Inhibition of Contractility @ 30 μM; for IC50: 0.5 h
Method: The compounds of the examples were tested to determine their ability to inhibit contractions of isolated rat bladder strips. See Foster, C. […] Malmgren, A. et al. J.Urol.
Male Sprague-Dawley rats (150-200 g) were obtained from ACE animal suppliers. Animals were allowed free access to food and water.
Animals were euthanized by CO2 asphyxiation followed by a bilateral thoracotomy. […] The bladder was opened and then cut into strips 1-2 mm in width and 7-10 mm in length. The strips were subsequently suspended in a 10 ml tissue bath under an initial resting tension of 1.5 g. The strips were held in place by two surgical clips one of which was attached to a fixed hook while the other was attached to an isometric force transducer. […] The carbachol was then washed out and the tissue allowed to relax to its resting level of activity. Following a further 30 minute period of recovery an additional 15 mM KCl were introduced into the tissue bath. […] Following stabilization of this enhanced level of contractile activity, incremental increases in the concentration of test compound or vehicle were introduced into the tissue bath. Contractile activity was measured for each compound or vehicle concentration during the last minute of a 30 minute challenge.
Isometric force developed by the bladder strips was measured using a force transducer and recorded on a polygraph. Contractile activity was assessed by measuring either the average amplitude of the contractions (baseline to peak force) occurring during a one minute period or, preferably, by integrating the contractile activity with respect to time (one minute measuring period).
The percentage inhibition of contractile activity evoked by each concentration of a given test compounds was used to generate a concentration-response curve.

[2] = strips stimulated with additional 15 mM KCl
[3] = concentration eliciting 50% inhibition of pre-drug contractile activity, strips stimulated with additional 15 mM KCl, 30 minute challenge per concentration, read-out: IC50

| Compound | melting point | inhibition at 30 µM [1, 2] [%] | IC50 [1, 3] [µM] | IC50 [1] [µM] |
| --- | --- | --- | --- | --- |
| O=C(Nc1ccc2oc3c(c2c1)CCCC3)c1ccccc1 [Example 18, N-(6,7,8,9-TETRAHYDRO-DIBENZOFURAN-2-YL)-BENZAMIDE] | 178 to 180 °C | 40 to 50 |  |  |
| CCC(=O)Nc1ccc2oc3c(c2c1)CCCC3 [Example 8, N-(6,7,8,9-TETRAHYDRO-DIBENZOFURAN-2-yl)-PROPIONAMIDE] | 164 to 165 °C |  | 4 to 8 |  |
| COc1ccc(C(=O)Nc2ccc3oc4c(c3c2)CCCC4)cc1 [Example 13, 4-METHOXY-N-(6,7,8,9-TETRAHYDRO-DIBENZOFURAN-2-YL)-BENZAMIDE] | 197 to 197.5 °C | 15 to 25 |  |  |
| CC(C)CC(=O)Nc1ccc2oc3c(c2c1)CCCCCC3 [Example 64, 3-METHYL-N-[6,7,8,9,10,11-HEXAHYDRO-BENZO[B]-CYCLOOCTA[D]-FURAN-2-YL]BUTYRAMIDE] | 154 to 155 °C |  | 0.1 to 0.5 |  |
| CC(C)CC(=O)Nc1ccc2oc3c(c2c1)CCC3 [Example 25, N-(2,3-DIHYDRO-1H-CYCLOPENTA[B]BENZOFURAN-7-YL)-3-METHYL-BUTYRAMIDE] | 162 to 163 °C |  | 3 to 8 |  |
| O=C(Nc1ccc2oc3c(c2c1)CCCC3)c1ccc([N+](=O)[O-])cc1 [Example 15, 4-NITRO-N-(6,7,8,9-TETRAHYDRO-DIBENZOFURAN-2-YL)-BENZAMIDE] | 279 to 280 °C | 10 to 20 |  |  |
| CC(C)C(=O)Nc1ccc2oc3c(c2c1)CCCC3 [Example 9, N-(6,7,8,9-TETRAHYDRO-DIBENZOFURAN-2-YL)-ISOBUTYRAMIDE] | 206.5 to 208 °C |  | 6 to 8 |  |
| O=C(CC1CCCCC1)Nc1ccc2oc3c(c2c1)CCCCC3 [Example 29, 2-CYCLOHEXYL-N-[7,8,9,10-TETRAHYDRO-6H-BENZO[B]-CYCLOHEPTA[d]FURAN-2-YL]ACETAMIDE] | 188 to 189 °C |  | 1 to 10 |  |
| CC(C)(C)CC(=O)Nc1ccc2oc3c(c2c1)CCCCCC3 [Example 62, 3,3-DIMETHYL-N-[6,7,8,9,10,11-HEXAHYDRO-BENZO[B]-CYCLOOCTA[D]FURAN-2-YL]BUTYRAMIDE] | 157 to 158 °C |  | 1 to 5 |  |
| CC(C)(C)C(=O)Nc1ccc2oc3c(c2c1)CCCCC3 [Example 27, 2,2-DIMETHYL-N-(6,7,8,9-TETRAHYDRO-5H-10-OXA-BENZO[A]AZULEN-3-YL)-PROPIONAMIDE] | 208 to 209 °C |  | 0.1 to 0.4 |  |
| CC(C)CCC(=O)Nc1ccc2oc3c(c2c1)CCCC3 [Example 14, 4-METHYL-N-(6,7,8,9-TETRAHYDRO-DIBENZOFURAN-2-YL)-PENTANAMIDE] | 145.5 to 146 °C |  | 10 to 20 |  |
| CC(C)(C)C(=O)Nc1ccc2oc3c(c2c1)CCC3 [Example 24, N-(2,3-DIHYDRO-1H-CYCLOPENTA(b)BENZOFURAN-7-YL)-2,2-DIMETHYL-PROPIONAMIDE] | 188.5 to 190 °C |  | 1 to 5 |  |
| CC(C)(C)CC(=O)Nc1ccc2oc3c(c2c1)CCCCC3 [Example 26, 3,3-DIMETHYL-N-[7,8,9,10-TETRAHYDRO-6H-Benzo[B]-CYCLOHEPTA[d]FURAN-2-YL]BUTYRAMIDE] | 182 to 183 °C |  | 0.2 to 0.7 |  |
| CC(C)(C)C(=O)Nc1ccc2oc3c(c2c1)CCCC3 [Example 1, 2,2-DIMETHYL-N-(6,7,8,9-TETRAHYDRO-DIBENZOFURAN-2-YL)-PROPIONAMIDE] | 210 to 211 °C |  | 0.2 to 0.7 |  |
| CC(=O)Nc1ccc2oc3c(c2c1)CCCC3 [Example 11, N-(6,7,8,9-TETRAHYDRO-DIBENZOFURAN-2-YL)-ACETAMIDE] | 195.5 to 197.5 °C | 20 to 30 |  |  |
| Cc1ccccc1C(=O)Nc1ccc2oc3c(c2c1)CCCC3 [Example 12, 2-METHYL-N-(6,7,8,9-TETRAHYDRO-DIBENZOFURAN-2-YL)-BENZAMIDE] | 209 to 210 °C | 20 to 30 |  |  |
| CC(C)(C)CC(=O)Nc1ccc2oc3c(c2c1)CCCC3 [Example 3, 3,3-DIMETHYL-N-(6,7,8,9-TETRAHYDRO-DIBENZOFURAN-2-YL)-BUTYRAMIDE] | 164 to 165 °C |  | 3 to 11 |  |

| Compound | melting point | inhibition at 30 µM [1, 2] [%] | IC50 [1, 3] [µM] | IC50 [1] [µM] |
| --- | --- | --- | --- | --- |
| O=C(Nc1ccc2oc3c(c2c1)CCCC3)C12CC3CC(CC(C3)C1)C2 [Example 5, ADAMANTANE-1-CARBOXYLIC ACID (6,7,8,9-TETRAHYDRO-DIBENZOFURAN-2-YL)-AMIDE] | 247 to 248 °C | 10 to 30 |  |  |
| CC(C)(C)c1ccc(C(=O)Nc2ccc3oc4c(c3c2)CCCC4)cc1 [Example 6, 4-TERT-BUTYL-N-(6,7,8,9-TETRAHYDRO-DIBENZOFURAN-2-YL)-BENZAMIDE] | 185 to 186 °C | 10 to 20 |  |  |
| O=C(CC1CCCCC1)Nc1ccc2oc3c(c2c1)CCCC3 [Example 7, 2-CYCLOHEXYL-N-(6,7,8,9-TETRAHYDRO-DIBENZOFURAN-2-YL)-ACETAMIDE] | 189 to 191 °C |  | 10 to 15 |  |
| Nc1ccc(C(=O)Nc2ccc3oc4c(c3c2)CCCC4)cc1 [Example 16, 4-AMINO-N-(6,7,8,9-TETRAHYDRO-DIBENZOFURAN-2-YL)-BENZAMIDE] | 207 to 208 °C | 5 to 10 |  |  |
| CC(C)(C)C(=O)Nc1ccc2oc3c(c2c1)CCCCCC3 [Example 63, 2,2-DIMETHYL-N-[6,7,8,9,10,11-HEXAHYDRO-BENZO[B]-CYCLOOCTA[D]-FURAN-2-YL]PROPIONAMIDE] | 189 to 190 °C |  | 0.11 to 0.25 |  |
| O=C(Cc1ccccc1)Nc1ccc2oc3c(c2c1)CCCC3 [Example 4, 2-PHENYL-N-(6,7,8,9-TETRAHYDRO-DIBENZOFURAN-2-YL)-ACETAMIDE] | 180 to 181 °C |  | 9.1 to 12 |  |
| CC(C)(C)NC(=O)Nc1ccc2oc3c(c2c1)CCCC3 [Example 83, 1-TERT-BUTYL-3-(6,7,8,9-TETRAHYDRO-DIBENZOFURAN-2-YL)-UREA] | 310 to 312 °C (dec.) |  | 4 to 5 |  |
| CCN(CC)C(=O)Nc1ccc2oc3c(c2c1)CCCC3 [Example 84, 1,1-DIETHYL-3-(6,7,8,9-TETRAHYDRO-DIBENZOFURAN-2-YL)-UREA] | 179 to 180 °C |  | 3 to 5 |  |
| CC(C)(C)CC(=O)Nc1ccc2oc3c(c2c1)CCC3 [Example 23, N-(2,3-DIHYDRO-1H-CYCLOPENTA[B]BENZOFURAN-7-YL)-3,3-DIMETHYL-BUTYRAMIDE] | 195.5 to 197 °C |  | 0.35 to 0.53 |  |
| CC(C)CC(=O)Nc1ccc2oc3c(c2c1)CCCC3 [Example 2, 3-METHYL-N-(6,7,8,9-TETRAHYDRO-DIBENZOFURAN-2-YL)-BUTYRAMIDE] | 154 to 157 °C |  | 1.2 to 4 |  |
| O=C(CC1CCCCC1)Nc1ccc2oc3c(c2c1)CCCCCC3 [Example 65, 2-CYCLOHEXYL-N-[6,7,8,9,10,11-HEXAHYDRO-BENZO[B]-CYCLOOCTA[D]FURAN-2-YL]ACETAMIDE] | 180 to 181 °C |  | 4 to 10 |  |
| CC(C)CC(=O)Nc1ccc2oc3c(c2c1)CCCCC3 [Example 28, 3-METHYL-N-[7,8,9,10-TETRAHYDRO-6H-Benzo[B]-Cyclohepta[D]FURAN-2-YL]BUTYRAMIDE] | 162 to 163 °C |  | 1 to 5 |  |
| Cc1cccc(C(=O)Nc2ccc3oc4c(c3c2)CCCCCC4)c1 [Example 69, N-(6,7,8,9,10,11-HEXAHYDROBENZO[B]CYCLOOCTA[D]FURAN-2-YL)-3-METHYLBENZAMIDE] |  | 10 to 20 |  |  |
| C[C@@H](OCc1ccccc1)C(NC(=O)OC(C)(C)C)C(=O)Nc1ccc2oc3c(c2c1)CCCCC3 (stereo in doubt) [Example 59, TERT-BUTYL {(1R,2R)-2-(BENZYLOXY)-1-[(7,8,9,10-TETRAHYDRO-6H-BENZO[B]CYCLOHEPTA[D]FURAN-2-YLAMINO)CARBONYL]PROPYL}CARBAMATE] |  |  | 1.5 to 2 |  |
| CC(C)(C)OC(=O)N[C@@H](Cc1ccccc1)C(=O)Nc1ccc2oc3c(c2c1)CCCCC3 [Example 53, TERT-BUTYL [(1S)-1-BENZYL-2-OXO-2-(7,8,9,10-TETRAHYDRO-6H-BENZO[B]CYCLOHEPTA[D]FURAN-2-YLAMINO)ETHYL]CARBAMATE] |  | 15 to 25 |  |  |
| CN(C)CCN(C)CC(=O)Nc1ccc2oc3c(c2c1)CCCCC3 [Example 41] |  |  |  | 1 to 5 |
| CCCCCCC(=O)Nc1ccc2oc3c(c2c1)CCCCCC3 [Example 82, N-6,7,8,9,10,11-HEXAHYDROBENZO[B]CYCLOOCTA[D]FURAN-2-YLHEPTANAMIDE] |  |  |  | 0.6 to 2 |
